From US20220387375A1, “TRPV1 ACTIVATION-MODULATING COMPLEX MIXTURES OF CANNABINOIDS AND/OR TERPENES” (GBS Global Biopharma, Inc., priority 2018, published 2022)

Experiments:
[1] = molecular target: T1, TRPV2 (Homo sapiens, UniProt Q9Y5S1); assay: Bulk calcium assay (Fluo-4) in HEK cells overexpressing TRPV2; format: cell-based
T1 construct: host or cells: HEK TRex293
T1 sequence (Q9Y5S1 1-764): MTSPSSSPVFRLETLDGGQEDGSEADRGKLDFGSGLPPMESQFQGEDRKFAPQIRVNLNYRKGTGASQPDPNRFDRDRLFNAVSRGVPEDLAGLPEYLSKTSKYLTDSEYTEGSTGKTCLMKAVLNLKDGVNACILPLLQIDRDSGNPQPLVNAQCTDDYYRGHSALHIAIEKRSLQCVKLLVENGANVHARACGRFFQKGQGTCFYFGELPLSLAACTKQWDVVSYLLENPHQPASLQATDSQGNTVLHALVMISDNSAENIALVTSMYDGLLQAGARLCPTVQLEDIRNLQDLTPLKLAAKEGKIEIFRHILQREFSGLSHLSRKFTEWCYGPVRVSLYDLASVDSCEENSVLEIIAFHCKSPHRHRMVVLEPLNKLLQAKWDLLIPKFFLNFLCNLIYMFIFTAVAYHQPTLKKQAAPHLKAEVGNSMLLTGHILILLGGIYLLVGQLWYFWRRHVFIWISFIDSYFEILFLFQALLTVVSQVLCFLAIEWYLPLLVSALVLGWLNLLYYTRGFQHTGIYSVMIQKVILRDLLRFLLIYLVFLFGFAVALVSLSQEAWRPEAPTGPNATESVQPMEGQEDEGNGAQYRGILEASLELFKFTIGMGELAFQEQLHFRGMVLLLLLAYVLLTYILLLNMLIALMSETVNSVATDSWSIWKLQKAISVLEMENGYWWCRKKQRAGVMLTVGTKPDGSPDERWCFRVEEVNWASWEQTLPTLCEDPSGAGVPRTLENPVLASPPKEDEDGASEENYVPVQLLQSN
Description: (§1) HEK TRexTRPV1 were cultured in DMEM, 10% Fetal Bovine Serum, 2 mM Lglutamine, 10 μg/ml Blasticidin (Calbiochem, San Diego Calif.), 400 μg/ml Zeocin (InvivoGen, San Diego Calif.), where indicated transgene expression was induced using 1 μg/ml Tetracycline for 16-24 hrs. Unless otherwise indicated, basal expression of TRPV1 without induction was sufficient for these studies, and comparisons were made to untransfected HEK where needed. HEKTRex293 over-expressing human TRPV2, human TRPA1 and human TRPM8 were obtained from SB Drug Discovery (Glasgow, Scotland) and cultured as described above. The cannabinoids and terpenes were assayed in HEK cells that have been transfected with the TRPV1 ion channel protein. These cells are called HEK293-V1 cells.
(§2) Cells were washed and incubated with 0.2 micromolar Fluo-4 for 30 minutes at 37° C. in a standard modified Ringer's solution of the following composition (in mM): NaCl 145, KCl 2.8, CsCl 10, CaCl2 10, MgCl2 2, glucose 10, Hepes·NaOH 10, pH 7.4, 330 mOsm. Cells were transferred to 96-well plates at 50,000 cells/well and stimulated as indicated. Calcium signals were acquired using a Flexstation 3 (Molecular Devices, Sunnydale, USA). Data was analyzed using SoftMax® Pro 5 (Molecular Devices). Where indicated, nomically calcium-free external conditions were achieved by the preparation of 0 mM CaCl2 Ringer solution containing 1 mM EGTA.
(§3) Calcium responses mediated by TRPA1, TRPM8, TRPV2, and TRPV1 were tested by calcium assay in the cell culture system. Cells were washed and incubated with 0.2 μM fluo-4 acetoxymethyl ester (“Fluo-4”) for 30 minutes at 37° C. in a standard modified Ringer's solution of the following composition (in mM): NaCl 145, KCl 2.8, CsCl 10, CaCl2 10, MgCl2 2, glucose 10, Hepes·NaOH 10, pH 7.4, 330 mOsm. Cells were transferred to 96-well plates at 50,000 cells/well and stimulated with 10 μM myrcene diluted in DMSO. Vehicle (DMSO) was used as a negative control. Vehicle traces were subtracted from the myrcene traces for each cell line.
(§4) The potential for different cannabinoids to target specific TRP channels, or to co-target more than one channel type, are of potential therapeutic options for the treatment and management of pain. Comparison of the impacts of a variety of cannabinoid on overexpression systems for TRPV2, TRPM8, and TRPA1 were performed in a side-by-side fashion, under bulk calcium assays where the measurements with each trace representing averaged triplicates of 100,000 cells per sample. As shown in FIGS. 41-43 and summarized in Table 3, there are clear differences in responsiveness between cannabinoids at a single channel type than between channel types to a given cannabinoid.

[2] = molecular target: T2, TRPA1 (Homo sapiens, UniProt O75762); assay: Bulk calcium assay (Fluo-4) in HEK cells overexpressing TRPA1; format: cell-based
T2 construct: host or cells: HEK TRex293
T2 sequence (O75762 whole entry): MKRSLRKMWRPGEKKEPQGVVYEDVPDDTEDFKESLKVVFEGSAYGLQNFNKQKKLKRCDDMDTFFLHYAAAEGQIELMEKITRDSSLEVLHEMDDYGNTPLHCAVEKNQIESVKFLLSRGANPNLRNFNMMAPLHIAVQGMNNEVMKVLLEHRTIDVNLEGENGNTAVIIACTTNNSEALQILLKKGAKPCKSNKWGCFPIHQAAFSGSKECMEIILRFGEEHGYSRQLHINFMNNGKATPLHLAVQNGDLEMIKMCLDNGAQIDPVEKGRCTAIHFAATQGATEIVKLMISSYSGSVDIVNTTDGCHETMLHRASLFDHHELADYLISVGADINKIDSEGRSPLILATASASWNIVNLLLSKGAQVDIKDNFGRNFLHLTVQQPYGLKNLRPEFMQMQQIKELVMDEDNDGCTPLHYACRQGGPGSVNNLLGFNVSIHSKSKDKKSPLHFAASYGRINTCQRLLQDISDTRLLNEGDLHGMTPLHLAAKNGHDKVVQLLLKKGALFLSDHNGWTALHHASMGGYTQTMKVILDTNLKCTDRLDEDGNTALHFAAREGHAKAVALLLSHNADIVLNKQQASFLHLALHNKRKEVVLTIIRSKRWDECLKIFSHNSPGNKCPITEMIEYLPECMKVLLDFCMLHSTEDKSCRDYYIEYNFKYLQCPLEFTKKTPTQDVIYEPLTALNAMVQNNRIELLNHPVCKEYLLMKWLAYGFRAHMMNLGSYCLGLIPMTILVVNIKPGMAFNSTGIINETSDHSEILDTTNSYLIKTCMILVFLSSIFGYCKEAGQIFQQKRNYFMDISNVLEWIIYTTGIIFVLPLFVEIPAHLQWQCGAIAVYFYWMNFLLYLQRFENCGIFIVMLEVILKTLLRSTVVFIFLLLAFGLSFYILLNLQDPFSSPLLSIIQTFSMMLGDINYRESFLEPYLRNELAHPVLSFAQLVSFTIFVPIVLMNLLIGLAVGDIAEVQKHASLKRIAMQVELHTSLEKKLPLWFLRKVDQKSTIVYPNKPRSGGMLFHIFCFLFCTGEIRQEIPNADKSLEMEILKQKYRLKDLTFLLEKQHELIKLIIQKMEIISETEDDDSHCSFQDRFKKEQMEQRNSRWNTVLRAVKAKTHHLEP
Description: as §1, §2, §3, §4

SMILES | mean maximal Ca^2+ signal RFU achieved 0-180 s (SD), TRPV1 [1] | mean maximal Ca^2+ signal RFU achieved 0-180 s (SD), TRPA1 [2]
CCCCCc1cc(O)c(C/C=C(\C)CCC=C(C)C)c(O)c1 [CBG, Cannabigerol] | 2.19 (0.62) RFU | 10.22 (1.29) RFU
CCCCCc1cc(O)c2c(c1)OC(C)(C)c1ccc(C)cc1-2 [CBN, Cannabinol] | 4.03 (0.64) RFU | 10.97 (0.4) RFU
C=C(C)[C@@H]1CCC(C)=C[C@H]1c1c(O)cc(CCCCC)cc1O [CBD, Cannabidiol] | 12.53 (0.28) RFU | 1.28 (0.03) RFU
C=C(C)[C@@H]1CCC(C)=C[C@H]1c1c(O)cc(CCC)cc1O [CBDV, Cannabidivarin] | 13.07 (0.03) RFU | 16.17 (2.68) RFU
